Experimental data from US9511073B2, “Aromatic amides and uses thereof” (TAXIS Pharmaceuticals, Inc., priority 2011, dated 2016).
Converted amounts (≈) assume the structure as drawn.

These compounds were tested on Staphylococcus aureus (Isolate ID ATCC 29213) (assay: Bacterial assay: MIC by broth microdilution or agar dilution (CLSI), S. aureus ATCC 29213). Conditions: S. aureus (ATCC29213).
Format: cell-based
Experimental: Compounds are tested for antimicrobial activity by susceptibility testing in liquid or on solid media. Minimum inhibitory concentrations (MICs) for compounds against each strain are determined by the broth microdilution or agar dilution method according to the guidelines of the Clinical Laboratories and Standards Institute, formerly the National Committee for Clinical Laboratory Standards (Clinical Laboratories and Standards Institute. Methods for Dilution Antimicrobial Susceptibility Tests for Bacteria That Grow Aerobically; Approved Standard—Seventh Edition. Document M7-A7. CLSI, Wayne, Pa., 2006; Clinical Laboratories and Standards Institute). The bacterial strains tested include S. aureus (Staphylococcus aureus (Isolate ID ATCC 29213)) and an FtsZ mutant of this isolate (FtsZ-G196A Staphylococcus aureus (Isolate ID GG/190723/sa/1.2)). Compound MICs were determined to be in the following activity ranges “A” activity≦0.25 μg/mL; “B” activity>0.25 μg/mL-1.0 μg/mL; “C” activity>1.0 μg/mL-16 μg/mL; “D” activity>16 μg/mL and ND=not determined. The bracketed entries indicate entantiomer(s) and their activity.
`NC(=O)c1c(F)ccc(OC(CC(O)CO)c2nc(-c3ccc(C(F)(F)F)cc3)c(Br)o2)c1F` (stereo not drawn) [Compound 148, 3-(1-(5-bromo-4-(4-(trifluoromethyl)phenyl)oxazol-2-yl)-3,4-dihydroxybutoxy)-2,6-difluorobenzamide] was tested, and the “S. aureus MIC (μg/mL) Activity Range” value was “C (activity>1.0 μg/mL-16 μg/mL)”.

Same assay, conditions: Staphylococcus aureus, ATCC29213, read-out: S. aureus MIC (μg/mL) Activity Range, S. aureus (ATCC29213)
`COCCn1cncc1CNC(=O)OCC(Oc1ccc(F)c(C(N)=O)c1F)c1nc(-c2ccc(C(F)(F)F)cc2)c(Br)o1` (stereo not drawn) [Compound 207, 2-(5-bromo-4-(4-(trifluoromethyl)phenyl)oxazol-2-yl)-2-(3-carbamoyl-2,4-difluorophenoxy)ethyl ((1-(2-methoxyethyl)-1H-imidazol-5-yl)methyl)carbamate] was tested, and the MIC was 1 to 16 µg/mL (≈ 1.45 to 23.2 µM).
For `NC(=O)c1c(F)ccc(OC(c2cccnc2)c2nc(-c3ccc(Cl)cc3)c(Br)o2)c1F` (stereo not drawn) [Compound 99, 3-((5-bromo-4-(4-chlorophenyl)oxazol-2-yl)(pyridin-3-yl)methoxy)-2,6-difluorobenzamide], the MIC was 1 to 16 µg/mL (≈ 1.92 to 30.7 µM).
`Cn1cnc(CNC(=O)OCC(Oc2ccc(F)c(C(N)=O)c2F)c2nc(-c3ccc(C(F)(F)F)cc3)c(Br)o2)c1` (stereo not drawn) [Compound 203, 2-(5-bromo-4-(4-(trifluoromethyl)phenyl)oxazol-2-yl)-2-(3-carbamoyl-2,4-difluorophenoxy)ethyl ((1-methyl-1H-imidazol-4-yl)methyl)carbamate] showed an MIC of 0.25 to 1 µg/mL (≈ 0.388 to 1.55 µM).
`COc1ccc(-c2nc(C(COC(C)=O)Oc3ccc(F)c(C(N)=O)c3F)oc2Br)cc1` (stereo not drawn) [Compound 111, 2-(5-bromo-4-(4-methoxyphenyl)oxazol-2-yl)-2-(3-carbamoyl-2,4-difluorophenoxy)ethyl acetate] showed an MIC of 1 to 16 µg/mL.
`C=CCOC(=O)CCC(=O)OCC(Oc1ccc(F)c(C(N)=O)c1F)c1nc(-c2ccc(C(F)(F)F)cc2)c(Br)o1` (stereo not drawn) [Compound 70, allyl (2-(5-bromo-4-(4-(trifluoromethyl)phenyl)oxazol-2-yl)-2-(3-carbamoyl-2,4-difluorophenoxy)ethyl) succinate] was tested, and the MIC was 0.25 to 1 µg/mL.
With `CN(Cc1ccncc1)C(=O)OCC(Oc1ccc(F)c(C(N)=O)c1F)c1nc(-c2ccc(C(F)(F)F)cc2)c(Br)o1` (stereo not drawn) [Compound 186, 2-(5-bromo-4-(4-(trifluoromethyl)phenyl)oxazol-2-yl)-2-(3-carbamoyl-2,4-difluorophenoxy)ethyl methyl(pyridin-4-ylmethyl)carbamate] the MIC was 0.25 to 1 µg/mL (≈ 0.381 to 1.53 µM).
`NC(=O)c1c(F)ccc(OC(COC(=O)NCC(=O)O)c2nc(-c3ccc(C(F)(F)F)cc3)c(Br)o2)c1F` (stereo not drawn) [Compound 142, 2-(((2-(5-bromo-4-(4-(trifluoromethyl)phenyl)oxazol-2-yl)-2-(3-carbamoyl-2,4-difluorophenoxy)ethoxy)carbonyl)amino)acetic acid] was tested, and the MIC was > 16 µg/mL.
`Cc1ccc(-c2nc(C(CO)Oc3ccc(F)c(C(N)=O)c3F)oc2Br)s1` (stereo not drawn) [Compound 244, 3-(1-(5-bromo-4-(5-methylthiophen-2-yl)oxazol-2-yl)-2-hydroxyethoxy)-2,6-difluorobenzamide] was tested, and the MIC was 1 to 16 µg/mL (≈ 2.18 to 34.8 µM).
With `CC(=O)OCC(Oc1ccc(F)c(C(N)=O)c1F)c1nc(-c2ccc(C(F)(F)F)cc2)sc1Br` (stereo not drawn) [Compound 130, 2-(5-bromo-2-(4-(trifluoromethyl)phenyl)thiazol-4-yl)-2-(3-carbamoyl-2,4-difluorophenoxy)ethyl acetate] the MIC was > 16 µg/mL.
With `CCOC(=O)C(Oc1ccc(F)c(C(N)=O)c1F)c1nc(C2CCOCC2)co1` (stereo not drawn) [Compound 180, ethyl 2-(3-carbamoyl-2,4-difluorophenoxy)-2-(4-(tetrahydro-2H-pyran-4-yl)oxazol-2-yl)acetate] the MIC was > 16 µg/mL.
`COCC(Oc1ccc(F)c(C(N)=O)c1F)c1nc(-c2ccc(C(F)(F)F)cc2)c(Br)o1` (stereo not drawn) [Compound 103, 3-(1-(5-bromo-4-(4-(trifluoromethyl)phenyl)oxazol-2-yl)-2-methoxyethoxy)-2,6-difluorobenzamide] showed an MIC of 0.25 to 1 µg/mL (≈ 0.48 to 1.92 µM).
`Cc1nnc(CC(Oc2ccc(F)c(C(N)=O)c2F)c2nc(-c3ccc(C(F)(F)F)cc3)c(Br)o2)o1` (stereo not drawn) [Compound 120, 3-(1-(5-bromo-4-(4-(trifluoromethyl)phenyl)oxazol-2-yl)-2-(5-methyl-1,3,4-oxadiazol-2-yl)ethoxy)-2,6-difluorobenzamide] showed an MIC of 1 to 16 µg/mL (≈ 1.74 to 27.9 µM).
With `Cn1ccnc1CNC(=O)OCC(Oc1ccc(F)c(C(N)=O)c1F)c1nc(-c2ccc(C(F)(F)F)cc2)c(Br)o1` (stereo not drawn) [Compound 201, 2-(5-bromo-4-(4-(trifluoromethyl)phenyl)oxazol-2-yl)-2-(3-carbamoyl-2,4-difluorophenoxy)ethyl ((1-methyl-1H-imidazol-2-yl)methyl)carbamate] the MIC was 0.25 to 1 µg/mL (≈ 0.388 to 1.55 µM).
Work on `Cn1c(CNC(=O)OCC(Oc2ccc(F)c(C(N)=O)c2F)c2nc(-c3ccc(C(F)(F)F)cc3)c(Br)o2)nc2ccccc21` (stereo not drawn) [Compound 210, 2-(5-bromo-4-(4-(trifluoromethyl)phenyl)oxazol-2-yl)-2-(3-carbamoyl-2,4-difluorophenoxy)ethyl ((1-methyl-1H-benzo[d]imidazol-2-yl)methyl)carbamate] yielded an MIC of 0.25 to 1 µg/mL (≈ 0.36 to 1.44 µM).
`CCCc1oc(C(CO)Oc2ccc(F)c(C(N)=O)c2F)nc1-c1ccc(C(F)(F)F)cc1` (stereo not drawn) [Compound 67, 2,6-difluoro-3-(2-hydroxy-1-(5-propyl-4-(4-(trifluoromethyl)phenyl)oxazol-2-yl)ethoxy)benzamide] was tested, and the MIC was 1 to 16 µg/mL (≈ 2.13 to 34 µM).
For `NC(=O)c1c(F)ccc(OC(CO)c2nc(-c3ccc(Cl)cc3)c(Br)o2)c1F` (stereo not drawn) [Compound 39, 3-(1-(5-bromo-4-(4-chlorophenyl)oxazol-2-yl)-2-hydroxyethoxy)-2,6-difluorobenzamide], the MIC was < 0.25 µg/mL.
`CNc1ccc(-c2coc(C(CO)Oc3ccc(F)c(C(N)=O)c3F)n2)cn1` (stereo not drawn) [Compound 220, 2,6-difluoro-3-(2-hydroxy-1-(4-(6-(methylamino)pyridin-3-yl)oxazol-2-yl)ethoxy)benzamide] was tested, and the MIC was > 16 µg/mL.
`NC(=O)c1c(F)ccc(OC(CC(=O)O)c2nc(-c3ccc(C(F)(F)F)cc3)c(Br)o2)c1F` (stereo not drawn) [Compound 77, 3-(5-bromo-4-(4-(trifluoromethyl)phenyl)oxazol-2-yl)-3-(3-carbamoyl-2,4-difluorophenoxy)propanoic acid] was tested, and the MIC was > 16 µg/mL.
Work on `Cc1noc(CCNC(=O)OCC(Oc2ccc(F)c(C(N)=O)c2F)c2nc(-c3ccc(C(F)(F)F)cc3)c(Br)o2)n1` (stereo not drawn) [Compound 171, 2-(5-bromo-4-(4-(trifluoromethyl)phenyl)oxazol-2-yl)-2-(3-carbamoyl-2,4-difluorophenoxy)ethyl (2-(3-methyl-1,2,4-oxadiazol-5-yl)ethyl)carbamate] yielded an MIC of 0.25 to 1 µg/mL (≈ 0.379 to 1.51 µM).
Work on `NC(=O)c1c(F)ccc(OC(COC(=O)CN2C(=O)c3ccccc3C2=O)c2nc(-c3ccc(C(F)(F)F)cc3)c(Br)o2)c1F` (stereo not drawn) [Compound 60, 2-(5-bromo-4-(4-(trifluoromethyl)phenyl)oxazol-2-yl)-2-(3-carbamoyl-2,4-difluorophenoxy)ethyl 2-(1,3-dioxoisoindolin-2-yl)acetate] yielded an MIC of 0.25 to 1 µg/mL (≈ 0.36 to 1.44 µM).
For `NC(=O)c1c(F)ccc(OC(CO)c2nc(-c3ccc(Br)s3)c(Br)o2)c1F` (stereo not drawn) [Compound 237, 3-(1-(5-bromo-4-(5-bromothiophen-2-yl)oxazol-2-yl)-2-hydroxyethoxy)-2,6-difluorobenzamide], the MIC was 0.25 to 1 µg/mL (≈ 0.477 to 1.91 µM).
In the case of `CC(C)(C)OC(=O)NCCNC(=O)OCC(Oc1ccc(F)c(C(N)=O)c1F)c1nc(-c2ccc(C(F)(F)F)cc2)c(Br)o1` (stereo not drawn) [Compound 151, 2-(5-bromo-4-(4-(trifluoromethyl)phenyl)oxazol-2-yl)-2-(3-carbamoyl-2,4-difluorophenoxy)ethyl tert-butyl ethane-1,2-diyldicarbamate], the MIC is reported as < 0.25 µg/mL.
`NC(=O)c1c(F)ccc(OC(CO)c2nc(-c3ccc(Cl)cc3F)c(Br)o2)c1F` (stereo not drawn) [Compound 235, 3-(1-(5-bromo-4-(4-chloro-2-fluorophenyl)oxazol-2-yl)-2-hydroxyethoxy)-2,6-difluorobenzamide] was tested, and the MIC was < 0.25 µg/mL.
Compound `Cc1cnccc1CNC(=O)OCC(Oc1ccc(F)c(C(N)=O)c1F)c1nc(-c2ccc(C(F)(F)F)cc2)c(Br)o1` (stereo not drawn) [Compound 216, 2-(5-bromo-4-(4-(trifluoromethyl)phenyl)oxazol-2-yl)-2-(3-carbamoyl-2,4-difluorophenoxy)ethyl ((3-methylpyridin-4-yl)methyl)carbamate] has an MIC of 0.25 to 1 µg/mL (≈ 0.381 to 1.53 µM).
`CC(=O)OCC(Oc1ccc(F)c(C(N)=O)c1F)c1nc(-c2ccc(-c3noc(C)n3)cc2)c(Br)o1` (stereo not drawn) [Compound 82, 2-(5-bromo-4-(4-(5-methyl-1,2,4-oxadiazol-3-yl)phenyl)oxazol-2-yl)-2-(3-carbamoyl-2,4-difluorophenoxy)ethyl acetate] was tested, and the MIC was 1 to 16 µg/mL.
In the case of `CN(CCNC(=O)OCC(Oc1ccc(F)c(C(N)=O)c1F)c1nc(-c2ccc(C(F)(F)F)cc2)c(Br)o1)C(=O)OC(C)(C)C` (stereo not drawn) [Compound 153, tert-butyl (2-(((2-(5-bromo-4-(4-(trifluoromethyl)phenyl)oxazol-2-yl)-2-(3-carbamoyl-2,4-difluorophenoxy)ethoxy)carbonyl)amino)ethyl)(methyl)carbamate], the MIC is reported as 0.25 to 1 µg/mL (≈ 0.353 to 1.41 µM).
With `CN(CC(=O)OCC(Oc1ccc(F)c(C(N)=O)c1F)c1nc(-c2ccc(Cl)cc2)c(Cl)o1)C(=O)OC(C)(C)C` (stereo not drawn) [Compound 58, 2-(3-carbamoyl-2,4-difluorophenoxy)-2-(5-chloro-4-(4-chlorophenyl)oxazol-2-yl)ethyl 2-((tert-butoxycarbonyl)(methyl)amino)acetate] the MIC was 1 to 16 µg/mL (≈ 1.67 to 26.6 µM).
`CCCc1oc(C(CCC)Oc2ccc(F)c(C(N)=O)c2F)nc1-c1ccc(Cl)cc1` (stereo not drawn) [Compound 30] showed an MIC of 1 to 16 µg/mL (≈ 2.23 to 35.6 µM).
In the case of `C[C@@H](O)[C@@H](Oc1ccc(F)c(C(N)=O)c1F)c1nc(-c2ccc(OC(F)F)cc2)c(Br)o1` [Compound 297, 3-((1R,2R)-1-(5-bromo-4-(4-(difluoromethoxy)phenyl)oxazol-2-yl)-2-hydroxypropoxy)-2,6-difluorobenzamide], the MIC is reported as < 0.25 µg/mL.
